Results reported in ChEMBL document CHEMBL4340561, “Application of the concept of oxime library screening by mass spectrometry (MS) binding assays to pyrrolidine-3-carboxylic acid derivatives as potential inhibitors of γ-aminobutyric acid transporter 1 (GAT1)” (Bioorg Med Chem, 2019).

Assays:
[1] = target: T1, Sodium- and chloride-dependent GABA transporter 1 (Mus musculus, UniProt P31648); assay: Inhibition of mouse GAT1 expressed in HEK293 cells assessed as reduction in [3H]GABA uptake preincubated for 25 mins followed by [3H]GABA addition and measured after 4 mins by liquid scintillation counting method; assay type: cell-based
[2] = target: T1, Sodium- and chloride-dependent GABA transporter 1; assay: Inhibition of NO711 binding to mouse GAT1 expressed in HEK293 cell membranes assessed as reduction in NO711 binding at incubated for 4 hrs in presence of NO711 by LC-ESI-MS/MS analysis relative to control
[3] = target: T2, GABA transporter 4 (Mus musculus, UniProt P31650); assay: Inhibition of mouse GAT4 expressed in HEK293 cells assessed as reduction in [3H]GABA uptake preincubated for 25 mins followed by [3H]GABA addition and measured after 4 mins by liquid scintillation counting method; assay type: cell-based
T2 sequence (P31650 whole entry): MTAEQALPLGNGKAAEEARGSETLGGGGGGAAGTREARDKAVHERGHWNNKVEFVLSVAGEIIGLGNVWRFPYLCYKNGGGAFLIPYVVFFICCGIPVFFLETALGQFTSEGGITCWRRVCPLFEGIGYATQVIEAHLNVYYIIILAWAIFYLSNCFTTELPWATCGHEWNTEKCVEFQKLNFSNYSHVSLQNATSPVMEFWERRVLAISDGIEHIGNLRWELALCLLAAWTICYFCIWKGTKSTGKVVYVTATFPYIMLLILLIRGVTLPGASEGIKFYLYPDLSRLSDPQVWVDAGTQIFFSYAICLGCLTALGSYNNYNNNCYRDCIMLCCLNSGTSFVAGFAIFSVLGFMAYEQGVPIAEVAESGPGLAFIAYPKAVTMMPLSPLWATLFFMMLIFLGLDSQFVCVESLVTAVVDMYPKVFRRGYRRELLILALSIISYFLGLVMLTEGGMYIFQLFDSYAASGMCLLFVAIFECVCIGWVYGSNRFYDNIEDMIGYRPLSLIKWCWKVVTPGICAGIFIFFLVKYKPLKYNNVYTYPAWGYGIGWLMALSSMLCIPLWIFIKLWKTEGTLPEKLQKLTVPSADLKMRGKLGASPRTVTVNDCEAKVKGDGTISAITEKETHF

[4] = target: T3, GABA transporter 4 (Mus musculus) (UniProt P31650); assay: Inhibition of mouse GAT4 expressed in HEK293 cells assessed as remaining [3H]GABA uptake at 100 uM preincubated for 25 mins followed by [3H]GABA addition and measured after 4 mins by liquid scintillation counting method; assay type: cell-based
T3 sequence (whole entry): T2 sequence (P31650 whole entry)

[5] = test system: Sodium- and chloride-dependent GABA transporter 2 (Mus musculus); assay: Inhibition of mouse GAT3 expressed in HEK293 cells assessed as remaining [3H]GABA uptake at 100 uM preincubated for 25 mins followed by [3H]GABA addition and measured after 4 mins by liquid scintillation counting method
[6] = test system: Sodium- and chloride-dependent betaine transporter (Mus musculus); assay: Inhibition of mouse GAT2 expressed in HEK293 cells assessed as remaining [3H]GABA uptake at 100 uM preincubated for 25 mins followed by [3H]GABA addition and measured after 10 mins by liquid scintillation counting method relative to control

In the case of `O=C(O)C1CCN(CCO/N=C/c2ccccc2-c2ccc(F)cc2Cl)C1` (stereo not given), the IC50 [1] is reported as 4.79 µM, the Ki [2] is reported as 0.692 µM and the IC50 [3] is reported as at least 100 µM. It also gave an Activity [4] of 66%, an Activity [5] of 75% and an Activity [6] of 52%.

In the case of `O=C(O)CC1CCNC1` (stereo not given), the IC50 [1] is reported as 4.07 µM.

`COc1cccc(F)c1-c1ccccc1/C=N/OCCN1CCC(C(=O)O)C1` (stereo not given) was tested, and the IC50 [1] was 1.91 µM, the Ki [2] was 0.407 µM and the IC50 [3] was at least 100 µM. The Activity [4] was 89%, the Activity [5] was 93% and the Activity [6] was 86%.

Compound `O=C(O)C1CCNC1` (stereo not given) has an IC50 [1] of 67.6 µM.

`O=C(O)C1=CCCN(CCON=C(c2ccccc2)c2ccccc2)C1` gave a Kd [2] of 0.0265 µM.

In the case of `O=C(O)C1CCN(CCO/N=C/c2ccccc2-c2ccc(Cl)cc2Cl)C1` (stereo not given), the IC50 [1] is reported as 2.29 µM, the Ki [2] is reported as 0.389 µM and the IC50 [3] is reported as at least 100 µM. For the same compound, the Activity [4] was 56% and the Activity [5] was 62%.
